Measured values taken from the supplement of paper PMC10307832.

Assays:
Test in all cases: relative viability (nuclei count vs DMSO), 5 days (fraction); higher = more cells survive
CAL-12T = test system: CAL-12T
Outline: (§1)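 Dosing by pin tool came one day after lung cancer cell lines were seeded in 1536-well plates, using either one drug or a fixed anchor-drug dose plus five library-drug doses (not always all listed) in √10 steps. After 5 days, nuclei were counted on 4× images. Relative viability is treated-well nuclei count divided by vehicle-well nuclei count, and values are medians of duplicate plates.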

COR-L 105 = test system: COR-L 105
Outline: as §1

COR-L23 = test system: COR-L23
Outline: as §1

HARA = test system: HARA
Outline: as §1

HCC-15 = test system: HCC-15
Outline: as §1

HCC-366 = test system: HCC-366
Outline: as §1

HCC-44 = test system: HCC-44
Outline: as §1

HCC-827 = test system: HCC-827
Outline: as §1

HOP-62 = test system: HOP-62
Outline: as §1

LC-2-ad = test system: LC-2-ad
Outline: as §1

LCLC-97TM1 = test system: LCLC-97TM1
Outline: as §1

LU99A = test system: LU99A
Outline: as §1

LXF-289 = test system: LXF-289
Outline: as §1

NCI-H1993 = test system: NCI-H1993
Outline: as §1

NCI-H2009 = test system: NCI-H2009
Outline: as §1

NCI-H2087 = test system: NCI-H2087
Outline: as §1

NCI-H2126 = test system: NCI-H2126
Outline: as §1

NCI-H2170 = test system: NCI-H2170
Outline: as §1

PC-14 = test system: PC-14
Outline: as §1

PC-3 [JPC-3] = test system: PC-3 [JPC-3]
Outline: as §1

SK-MES-1 = test system: SK-MES-1
Outline: as §1

COCC1(CO)C(=O)C2CCN1CC2 (configuration not stated) [PRIMA-1MET] + CC1(C)CCC(c2ccc(Cl)cc2)=C(CN2CCN(c3ccc(C(=O)NS(=O)(=O)c4ccc(N[C@H](CCN5CCOCC5)CSc5ccccc5)c(S(=O)(=O)C(F)(F)F)c4)cc3)CC2)C1 [Navitoclax] (partner 0.5 µM)
relative viability (CAL-12T; first compound 0.2 µM): 1.3 | relative viability (CAL-12T; first compound 0.6325 µM): 1.32 | relative viability (CAL-12T; first compound 2 µM): 1.15 | relative viability (CAL-12T; first compound 6.325 µM): 1.3 | relative viability (CAL-12T; first compound 20 µM): 0.583 | relative viability (COR-L 105; first compound 0.2 µM): 0.826 | relative viability (COR-L 105; first compound 0.6325 µM): 0.513 | relative viability (COR-L 105; first compound 2 µM): 0.761 | relative viability (COR-L 105; first compound 6.325 µM): 0.671 | relative viability (COR-L 105; first compound 20 µM): 0.211 | relative viability (COR-L23; first compound 0.2 µM): 1.1 | relative viability (COR-L23; first compound 0.6325 µM): 0.93 | relative viability (COR-L23; first compound 2 µM): 1.06 | relative viability (COR-L23; first compound 6.325 µM): 1.03 | relative viability (COR-L23; first compound 20 µM): 0.023 | relative viability (HARA; first compound 0.2 µM): 1.22 | relative viability (HARA; first compound 0.6325 µM): 1.02 | relative viability (HARA; first compound 6.325 µM): 1.13 | relative viability (HARA; first compound 20 µM): 1.11 | relative viability (HCC-15; first compound 0.2 µM): 0.772 | relative viability (HCC-15; first compound 0.6325 µM): 0.686 | relative viability (HCC-15; first compound 2 µM): 0.694 | relative viability (HCC-15; first compound 6.325 µM): 0.713 | relative viability (HCC-15; first compound 20 µM): 0.455 | relative viability (HCC-366; first compound 0.2 µM): 1.27 | relative viability (HCC-366; first compound 0.6325 µM): 0.959 | relative viability (HCC-366; first compound 6.325 µM): 0.981 | relative viability (HCC-366; first compound 20 µM): 0.024 | relative viability (HCC-44; first compound 0.2 µM): 1.05 | relative viability (HCC-44; first compound 0.6325 µM): 0.689 | relative viability (HCC-44; first compound 2 µM): 0.916 | relative viability (HCC-44; first compound 6.325 µM): 1.03 | relative viability (HCC-44; first compound 20 µM): 0.931 | relative viability (HCC-827; first compound 0.2 µM): 1.01 | relative viability (HCC-827; first compound 0.6325 µM): 0.9 | relative viability (HCC-827; first compound 2 µM): 0.721 | relative viability (HCC-827; first compound 6.325 µM): 1 | relative viability (HCC-827; first compound 20 µM): 1.03 | relative viability (HOP-62; first compound 0.2 µM): 1.44 | relative viability (HOP-62; first compound 0.6325 µM): 1.01 | relative viability (HOP-62; first compound 2 µM): 0.94 | relative viability (HOP-62; first compound 6.325 µM): 0.962 | relative viability (HOP-62; first compound 20 µM): 0.839 | relative viability (LC-2-ad; first compound 0.2 µM): 0.483 | relative viability (LC-2-ad; first compound 0.6325 µM): 0.375 | relative viability (LC-2-ad; first compound 2 µM): 0.511 | relative viability (LC-2-ad; first compound 6.325 µM): 0.39 | relative viability (LC-2-ad; first compound 20 µM): 0.217 | relative viability (LCLC-97TM1; first compound 0.2 µM): 0.605 | relative viability (LCLC-97TM1; first compound 2 µM): 0.644 | relative viability (LCLC-97TM1; first compound 6.325 µM): 0.531 | relative viability (LCLC-97TM1; first compound 20 µM): 0.0875 | relative viability (LU99A; first compound 0.2 µM): 1.06 | relative viability (LU99A; first compound 0.6325 µM): 0.611 | relative viability (LU99A; first compound 2 µM): 0.898 | relative viability (LU99A; first compound 6.325 µM): 0.752 | relative viability (LU99A; first compound 20 µM): 0.101 | relative viability (LXF-289; first compound 0.2 µM): 0.966 | relative viability (LXF-289; first compound 0.6325 µM): 0.956 | relative viability (LXF-289; first compound 2 µM): 0.93 | relative viability (LXF-289; first compound 6.325 µM): 0.986 | relative viability (LXF-289; first compound 20 µM): 0.903 | relative viability (NCI-H1993; first compound 0.2 µM): 0.997 | relative viability (NCI-H1993; first compound 0.6325 µM): 0.772 | relative viability (NCI-H1993; first compound 2 µM): 0.813 | relative viability (NCI-H1993; first compound 6.325 µM): 0.889 | relative viability (NCI-H1993; first compound 20 µM): 1.02 | relative viability (NCI-H2009; first compound 0.2 µM): 1.2 | relative viability (NCI-H2009; first compound 0.6325 µM): 1.23 | relative viability (NCI-H2009; first compound 2 µM): 1.23 | relative viability (NCI-H2009; first compound 6.325 µM): 1.16 | relative viability (NCI-H2009; first compound 20 µM): 0.302 | relative viability (NCI-H2087; first compound 0.2 µM): 1.03 | relative viability (NCI-H2087; first compound 0.6325 µM): 0.901 | relative viability (NCI-H2087; first compound 2 µM): 1.22 | relative viability (NCI-H2087; first compound 6.325 µM): 1.2 | relative viability (NCI-H2087; first compound 20 µM): 0.842 | relative viability (NCI-H2126; first compound 0.2 µM): 0.931 | relative viability (NCI-H2126; first compound 0.6325 µM): 0.833 | relative viability (NCI-H2126; first compound 2 µM): 0.897 | relative viability (NCI-H2126; first compound 6.325 µM): 0.852 | relative viability (NCI-H2126; first compound 20 µM): 0.839 | relative viability (NCI-H2170; first compound 0.2 µM): 0.621 | relative viability (NCI-H2170; first compound 0.6325 µM): 0.543 | relative viability (NCI-H2170; first compound 2 µM): 0.456 | relative viability (NCI-H2170; first compound 6.325 µM): 0.622 | relative viability (NCI-H2170; first compound 20 µM): 0.554 | relative viability (PC-14; first compound 0.2 µM): 0.951 | relative viability (PC-14; first compound 0.6325 µM): 0.932 | relative viability (PC-14; first compound 2 µM): 0.936 | relative viability (PC-14; first compound 6.325 µM): 1.03 | relative viability (PC-14; first compound 20 µM): 0.929 | relative viability (PC-3 [JPC-3]; first compound 0.2 µM): 0.853 | relative viability (PC-3 [JPC-3]; first compound 0.6325 µM): 0.572 | relative viability (PC-3 [JPC-3]; first compound 2 µM): 0.816 | relative viability (PC-3 [JPC-3]; first compound 6.325 µM): 0.794 | relative viability (PC-3 [JPC-3]; first compound 20 µM): 0.708 | relative viability (SK-MES-1; first compound 0.2 µM): 1.2 | relative viability (SK-MES-1; first compound 0.6325 µM): 1.28 | relative viability (SK-MES-1; first compound 2 µM): 1.19 | relative viability (SK-MES-1; first compound 6.325 µM): 1.27 | relative viability (SK-MES-1; first compound 20 µM): 1.23
